# From patent publication US6949571B2, “1,2-dihydropyridine compounds, process for preparation of the same and use thereof” (Eisai Co., Ltd., priority 2000, dated 2005)
# Like-named read-outs stand apart in the source and are kept apart here.
# Test system: AMPA receptor
# [1] = Table 1, primary culture of rat embryo cerebral cortex nerve cells, 2 μM AMPA, 1 μM MK-801
# [2] = Table 3, primary culture of rat embryo cerebral cortex nerve cells, 2 μM AMPA, 1 μM MK-801
# [3] = Table 2, suppression of AMPA-induced calcium influx into nerve cells
# 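Further: primary rat embryonic cortical neurons grown on an astrocyte layer in 96-well plates, used after at least 8 to 10 days in culture, Fura2-AM fluorescence ratio at 340/380 nm excitation.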
IC50 [3] [nM],Compound,IC50 [1] [nM],other results
,"N#Cc1ccccc1-c1cc(-c2ccncc2)cn(-c2ccccc2)c1=O [Example 35, 3-(2-Cyanophenyl)-5-(4-pyridyl)-1-phenyl-1,2-dihydropyridin-2-one]",3100,
,"O=c1c(-c2ccccc2)cc(-c2ccccc2)cn1-c1ccccn1 [Example 37, 3,5-Diphenyl-1-(2-pyridyl)-1,2-dihydropyridin-2-one]",700,
,"CS(=O)(=O)Nc1cccc(-n2cc(-c3ccccn3)cc(-c3ccccc3C#N)c2=O)c1 [Example 10, 3-(2-Cyanophenyl)-5-(2-pyridyl)-1-(3-methylsulfonylaminophenyl)-1,2-dihydropyridin-2-one]",50,
,"N#Cc1ccccc1-c1cc(-c2ccccn2)cn(-c2ccc(F)nc2)c1=O [Example 123, 3-(2-Cyanophenyl)-5-(2-pyridyl)-1-(2-fluoropyridin-5-yl)-1,2-dihydropyridin-2-one]",200,
,"O=c1c(-c2nc3cnccc3[nH]2)cc(-c2ccccn2)cn1-c1ccccc1 [Example 367, 3-(1H-Imidazo[4,5-c]pyridin-2-yl)-5-(2-pyridyl)-1-phenyl-1,2-dihydropyridin-2-one]",,IC50 [2]: 600 nM
1200,"CN(C)CCCOc1cccc(-n2cc(-c3ccccn3)cc(-c3ccccc3C#N)c2=O)c1 [Example 243, 3-(2-Cyanophenyl)-1-[3-(dimethylaminopropyloxy)phenyl]-5-(2-pyridyl)-1,2-dihydropyridin-2-one]",,
,"N#Cc1ccccc1-c1cc(-c2ccccn2)c[nH]c1=O [Example 6, 3-(2-Cyanophenyl)-5-(2-pyridyl)-2(1H)-pyridone]",9300,
,"N#CCc1cccc(-n2cc(-c3ccccn3)cc(-c3ccccc3C#N)c2=O)c1 [Example 22, 3-(2-Cyanophenyl)-5-(2-pyridyl)-1-(3-cyanomethylphenyl)-1,2-dihydropyridin-2-one]",60,
,"COc1ccc(-n2cc(-c3ccccn3)cc(-c3ccccc3C#N)c2=O)cc1 [Example 95, 3-(2-Cyanophenyl)-5-(2-pyridyl)-1-(4-methoxyphenyl)-1,2-dihydropyridin-2-one]",300,
2300,"N#Cc1ccccc1-c1cc(-c2ccccn2)cn(C2CCCC2)c1=O [Example 171, 3-(2-Cyanophenyl)-1-cyclopentyl-5-(2-pyridyl)-1,2-dihydropyridin-2-one]",,
,"CC(=O)NCc1cccc(-n2cc(-c3ccccn3)cc(-c3ccccc3C#N)c2=O)c1 [Example 23, 3-(2-Cyanophenyl)-5-(2-pyridyl)-1-(3-acetylaminomethylphenyl)-1,2-dihydropyridin-2-one]",200,
2700,"CS(=O)(=O)Nc1cccc(-c2cc(-c3ccccn3)cn(-c3ccccc3)c2=O)c1 [Example 228, 3-[3-(Methanesulfonylamino)phenyl]-1-phenyl-5-(2-pyridyl)-1,2-dihydropyridin-2-one]",,
,"N#Cc1ccccc1-c1cc(-c2nc3cccc4c3n2CCC4)cn(-c2ccccc2)c1=O [Example 358, 3-(2-Cyanophenyl)-5-(5,6-dihydro-4H-imidazo[4,5,1-i,j]quinolin-2-yl)-1-phenyl-1,2-dihydropyridin-2-one]",,IC50 [2]: 1400 nM
,"COc1ccccc1-c1cc(-c2ccccn2)cn(-c2ccc(F)cc2)c1=O [Example 56, 3-(2-Methoxyphenyl)-5-(2-pyridyl)-1-(4-fluorophenyl)-1,2-dihydropyridin-2-one]",3200,
,"N#Cc1ccccc1-c1cc(-c2ccccn2)cn(-c2ccc(C=O)cc2)c1=O [Example 100, 3-(2-Cyanophenyl)-5-(2-pyridyl)-1-(4-formylphenyl)-1,2-dihydropyridin-2-one]",400,
,"Cn1cccc2nc(-c3cc(-c4ccccc4C#N)c(=O)n(-c4ccccc4)c3)nc1-2 [Example 388, 3-(2-Cyanophenyl)-5-(4-methyl-imidazo[4.5-b]pyridin-2-yl)-1-phenyl-1,2-dihydropyridin-2-one]",,IC50 [2]: 2900 nM
2300,"O=c1c(-c2ccccc2Cl)cc(-c2nc3ccccc3o2)cn1-c1ccccc1 [Example 184, 3-(2-Chlorophenyl)-5-(2-benzoxazolyl)-1-phenyl-1,2-dihydropyridin-2-one]",,
100,"N#Cc1ccccc1-c1cc(-c2ccccn2)cn(-c2cccc(OCCN3CCCCC3)c2)c1=O [Example 240, 3-(2-Cyanophenyl)-1-[3-(piperidinoethoxy)phenyl]-5-(2-pyridyl)-1,2-dihydropyridin-2-one]",,
5400,"O=c1c(NC23CC4CC(CC(C4)C2)C3)cc(-c2ccccn2)cn1-c1ccccc1 [Example 176, 3-(1-Adamantylamino)-5-(2-pyridyl)-1-phenyl-1,2-dihydropyridin-2-one]",,

IC50 [3] [nM],Compound,IC50 [1] [nM],other results
,"N#Cc1ccccc1-c1cc(-c2ccccn2)cn(-c2cccc(CO)c2)c1=O [Example 21, 3-(2-Cyanophenyl)-5-(2-pyridyl)-1-(3-hydroxymethylphenyl)-1,2-dihydropyridin-2-one]",30,
,"O=c1c(-c2nc(-c3ccccc3)no2)cc(-c2ccccn2)cn1-c1ccccc1 [Example 390, 3-(3-Phenyl-1,2,4-oxadiazol-5-yl)-1-phenyl-5-(2-pyridyl)-1,2-dihydropyridin-2-one]",,IC50 [2]: 1000 nM
1200,"O=c1c(-c2ccc(F)nc2)cc(-c2ccccn2)cn1-c1ccccc1 [Example 288, 3-(2-Fluoropyridin-5-yl)-5-(2-pyridyl)-1-phenyl-1,2-dihydropyridin-2-one]",,
,"N#Cc1ccccc1-c1cc(NCc2ccccc2)cn(-c2ccccc2)c1=O [Example 313, 5-Benzylamino-3-(2-cyanophenyl)-1-phenyl-1,2-dihydropyridin-2-one]",,IC50 [2]: 5900 nM
2000,"COc1ccc(-c2cc(-c3ccccc3C#N)c(=O)n(-c3ccccc3)c2)cn1 [Example 200, 3-(2-Cyanophenyl)-5-(2-methoxypyridin-5-yl)-1-phenyl-1,2-dihydropyridin-2-one]",,
,"N#Cc1ccccc1-c1cc(-c2ccccn2)cn(-c2ccc(N3CCN(Cc4ccccc4)CC3)nc2)c1=O [Example 113, 3-(2-Cyanophenyl)-5-(2-pyridyl)-1-[2-(4-benzylpiperazin-1-yl)-pyridin-5-yl]-1,2-dihydropyridin-2-one]",1200,
,"N#Cc1ccccc1-c1cc(-c2ccsc2)cn(-c2ccccc2)c1=O [Example 44, 3-(2-Cyanophenyl)-5-(thiophen-3-yl)-1-phenyl-1,2-dihydropyridin-2-one]",300,
4700,"O=c1c(-c2cnccn2)cc(-c2ccccn2)cn1-c1ccccc1 [Example 253, 1-Phenyl-3-(2-pyrazyl)-5-(2-pyridyl)-1,2-dihydropyridin-2-one]",,
,"O=c1c(S(=O)(=O)c2ccc(Cl)cc2)cc(-c2ccccn2)cn1-c1ccccc1 [Example 382-B, 3-(4-Chlorobenzenesulfonyl)-5-(2-pyridyl)-1-phenyl-1,2-dihydropyridin-2-one]",,IC50 [2]: 2300 nM
,"O=c1c(-c2nc3cc(Cl)c(Cl)cc3[nH]2)cc(-c2ccccn2)cn1-c1ccccc1 [Example 354, 3-(5.6-Dichloro-1H-benzimidazol-2-yl)-5-(2-pyridyl)-1-phenyl-1,2-dihydropyridin-2-one]",,IC50 [2]: 1500 nM
,"N#Cc1ccccc1-c1cc(-c2ccccn2)cn(-c2ccc(OCCOCc3ccccc3)nc2)c1=O [Example 114, 3-(2-Cyanophenyl)-5-(2-pyridyl)-1-(2-benzyloxyethoxypyridin-5-yl)-1,2-dihydropyridin-2-one]",600,
1300,"O=c1c(-c2cccc3ccccc23)cc(-c2ccccn2)cn1-c1ccccc1 [Example 280, 3-(1-Naphthyl)-5-(2-pyridyl)-1-phenyl-1,2-dihydropyridin-2-one]",,
3700,"O=c1c(-c2cccc3ccccc23)cc(-c2ccccn2)cn1-c1cccnc1 [Example 279, 3-(1-Naphthyl)-5-(2-pyridyl)-1-(3-pyridyl)-1,2-dihydropyridin-2-one]",,
,"Cc1cccc(-n2cc(-c3ccccn3)cc(-c3ccccc3C#N)c2=O)c1 [Example 103, 3-(2-Cyanophenyl)-5-(2-pyridyl)-1-(3-tolyl)-1,2-dihydropyridin-2-one]",30,
,"O=Cc1sccc1-c1cc(-c2ccccn2)cn(-c2cccnc2)c1=O [Example 130, 3-(2-Formylthiophen-3-yl)-5-(2-pyridyl)-1-(3-pyridyl)-1,2-dihydropyridin-2-one]",900,
1200,"O=c1c(-c2ccncn2)cc(-c2ccccn2)cn1-c1ccccc1 [Example 256, 1-Phenyl-3-(4-pyrimidinyl)-5-(2-pyridyl)-1,2-dihydropyridin-2-one]",,
,"N#Cc1ccccc1-c1cc(-c2ccccn2)cn(-c2cccc(OC3CCN(S(=O)(=O)c4ccccc4)CC3)c2)c1=O [Example 337, 1-{3-[1-(Benzenesulfonyl)piperidin-4-yl-oxy]phenyl}-3-(2-cyanophenyl)-5-(2-pyridyl)-1,2-dihydropyridin-2-one]",,IC50 [2]: 700 nM
1100,"CCN(CC)CCOc1cccc(-n2cc(-c3ccccn3)cc(-c3ccccc3C#N)c2=O)c1 [Example 246, 3-(2-Cyanophenyl)-1-[3-(diethylaminoethoxy)phenyl]-5-(2-pyridyl)-1,2-dihydropyridin-2-one]",,

Compound,IC50 [3] [nM],IC50 [1] [nM],other results
"N#Cc1ccccc1-c1cc(-c2ccccn2)cn(-c2ccc3ccccc3c2)c1=O [Example 290, 3-(2-Cyanophenyl)-5-(2-pyridyl)-1-(2-naphthyl)-1,2-dihydropyridin-2-one]",200,,
"N#Cc1ccccc1-c1cc(-c2ccccn2)cn(-c2cccc(OCc3ccccc3)c2)c1=O [Example 276, 1-[3-(Benzyloxy)phenyl]-3-(2-cyanophenyl)-5-(2-pyridyl)-1,2-dihydropyridin-2-one]",1900,,
"Cc1cccc(-c2cc(-c3ccccc3C#N)c(=O)n(-c3ccccc3)c2)n1 [Example 195, 3-(2-Cyanophenyl)-5-(6-methylpyridin-2-yl)-1-phenyl-1,2-dihydropyridin-2-one]",200,,
"N#Cc1cccc(-c2cc(-c3ccccc3C#N)c(=O)n(-c3ccccc3)c2)n1 [Example 236, 3-(2-Cyanophenyl)-5-(2-cyanopyridin-6-yl)-1-phenyl-1,2-dihydropyridin-2-one]",600,,
"N#Cc1ccccc1-c1cc(-c2ccc(O)cn2)cn(-c2ccccc2)c1=O [Example 163, 3-(2-Cyanophenyl)-5-(5-hydroxypyridin-2-yl)-1-phenyl-1,2-dihydropyridin-2-one]",8200,,
